Measurements reported in patent US12134601B2, “Compounds for inhibiting LY6K and methods of using same” (The Henry M. Jackson Foundation for the Advancement of …, priority 2017, dated 2024).

Experiments:
human Ly6K protein = molecular target: T1, human Ly6K protein (Homo sapiens, UniProt Q17RY6); assay: Surface plasmon resonance binding to immobilized Ly6K (Biacore T100)
T1 construct: correspond to residues 18-138, which constitute the mature form of Ly6K; His tag (N); made in house; host or cells: E. coli BL21DE
T1 sequence (Q17RY6 18-138): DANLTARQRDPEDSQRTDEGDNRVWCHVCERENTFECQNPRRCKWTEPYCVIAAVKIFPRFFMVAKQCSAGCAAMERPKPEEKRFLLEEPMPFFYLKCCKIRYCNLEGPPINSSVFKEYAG
Procedure: (§1) FIG. 11: Small molecule binders of Ly6K. (A) Mature form of Ly6E, Ly6D and Ly6K were cloned in pET24a N-term His tag vector (Epoch Biosciences); expressed in BL21DE E. coli; purified recombinant protein was prepared using histidine column in using a batch purification method and eluted in 500 mM imidazole PBS, dialyzed in PBS. 5 μl of eluate was run on the 15% SDS-PAGE showing the purity with expected size protein of single band. (B) Structure of NSC243928. (G) Structure of NSC11150. (C-F; H-K) Representative surface plasmon resonance (SPR) sensorgrams show time on X-axis and SPR binding response on Y-axis. […] The corresponding data for NSC11150 are shown in corresponding lower panel.
We used surface plasmon resonance to identify small molecule binders of Ly6K. We screened a panel of 2000 small molecules, obtained from the Developmental Therapeutic Program (DTP, NCI). […] These five molecules were further tested for their ability to induce cell death, TGFβ1/Smad2/3 phosphorylation, IFNγ/Stat1 phosphorylation and PD-L1 protein expression. NSC243928 and NSC11150 were selected for further study on the basis of specificity and selectivity in bio-assays and structural flexibility, which allow future modifications required for in-depth studies (described in FIG. 11). The small molecule NSC243928 has been previously used in an in vivo anti-tumor screen by the NCI on a L1210 leukemia model in BDF1 syngeneic mice, a standard model used between 1955 and 1975. The average survival in this tumor model is 2-3 weeks. Treatment with NSC243928 increased survival benefit from 30% to 100% in a dose dependent manner. […] NSC11150 was not tested in in-vivo or in-vitro anti-tumor screens. […] As discussed infra, NSC243928 and NSC11150 inhibit TGFβ and PD-L1 pathways in a Ly6K dependent manner, indicating a mechanistic basic for the novel activities of these compounds (please see FIG. 11, 12). These experiments provide proof of the principle that small molecule targeting of Ly6K will have functional consequences and potentially lead to a better outcome in cancer treatment. […]

Ly6E = molecular target: T2, Ly6E (Homo sapiens, UniProt Q16553); assay: Surface plasmon resonance binding to Ly6E
T2 construct: Mature form of Ly6E, Ly6D and Ly6K were cloned in pET24a N-term His tag vector; His tag (N); made in house; host or cells: E. coli BL21DE
T2 sequence (Q16553 21-101 limits assumed): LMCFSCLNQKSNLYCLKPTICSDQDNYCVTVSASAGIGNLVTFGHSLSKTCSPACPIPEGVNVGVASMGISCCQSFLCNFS
Procedure: as §1
(§2) We performed a surface plasmon resonance assay using the Biacore T100 by immobilizing the purified human Ly6K protein on the surface of a CM5 chip and screening the binding with a small molecule library containing 2000 compounds (Developmental Therapeutics Program, NCI). An initial screening of molecules was performed at 1 or 10 μM compound, based on solubility. We used a model that compares the actual binding maximum (RUactual) with the theoretical binding maximum (RUtheor). […] Hits (RUactual to RUtheor of 0.7-2.0) were then reviewed by a team of medicinal chemists and those with structural potential were selected for further study. […]

Ly6D = molecular target: T3, Ly6D (Homo sapiens, UniProt Q14210); assay: Surface plasmon resonance binding to Ly6D
T3 construct: Mature form of Ly6E, Ly6D and Ly6K were cloned in pET24a N-term His tag vector; His tag (N); made in house; host or cells: E. coli BL21DE
T3 sequence (Q14210 21-98 limits assumed): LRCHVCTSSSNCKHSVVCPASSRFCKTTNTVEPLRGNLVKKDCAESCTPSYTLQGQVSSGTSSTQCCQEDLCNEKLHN
Procedure: as §1, §2

[1] = system: MDA-MB-231 cells (control and Ly6K knockdown); assay: Cell titer assay of cell growth / cell death; assay type: cell-based, human; conditions: for Cell growth: 72 hours
Procedure: FIG. 12: Effect of small molecule binders of Ly6K. […] Cell titer assay was performed to measure cell growth. (B) Cells were serum starved and treated with 100 ng/ml IFNγ with 2 μM drugs. PD-L1 was measure in live cells (using a zombie live-dead stain) as described in FIG. 3A. The graph was plotted from three experiments. (C, D) Indicated cells were allowed to attach, serum starved overnight and then treated with TGFβ (C) or IFNγ (D) in the presence of 2 μM drug for 30 minutes and western blot analysis was performed. The *** represents p<0.0005 and NS=non-significant in a two-tailed student T-test.
(§3) NSC243928 inhibited the TGFβ1 induced phosphorylation of Smad2/3; NSC11150 had no effect on TGFβ1/Smad2/3 signaling (FIG. 12C). NSC11150 inhibited IFNγ induced phosphorylation of Stat1; NSC243928 had no effect on IFNγ/Stat1 signaling (FIG. 12D).

PD-L1 = assay: IFNγ-induced PD-L1 protein expression in live cells (flow cytometry); assay type: cell-based, human; conditions: control cells, 100 ng/ml IFNγ, 2 μM drug
Procedure: FIG. 3: Ly6K is required for IFNγ/PD-L1 pathway. (A) Indicated cells were serum starved prior to treatment with IFNγ 100 ng/ml overnight. Cells were labeled with anti-PD-L1 BV540 antibody or isotype control antibody prior to fixation to assess the cell surface expression of PD-L1 protein. Percentage of high PD-L1 cells were plotted in a bar graph from three different experiments and subjected to a two tailed student T-test, wherein p<0.05 is considered significant. (B) Western blotting analysis for indicated proteins. (C) Hypothesized effect of Ly6K on IFNγ/Stat1 pathway leading to increased PD-L1.
FIG. 12: Effect of small molecule binders of Ly6K. (A) Indicated cells were seeded and allowed to attach overnight, then treated with 2 μM drugs for 72 hours. Cell titer assay was performed to measure cell growth. (B) Cells were serum starved and treated with 100 ng/ml IFNγ with 2 μM drugs. PD-L1 was measure in live cells (using a zombie live-dead stain) as described in FIG. 3A. The graph was plotted from three experiments. (C, D) Indicated cells were allowed to attach, serum starved overnight and then treated with TGFβ (C) or IFNγ (D) in the presence of 2 μM drug for 30 minutes and western blot analysis was performed. The *** represents p<0.0005 and NS=non-significant in a two-tailed student T-test. […]

TGFβ1/Smad2/3 signaling = assay: TGFβ1-induced Smad2/3 phosphorylation (western blot); assay type: cell-based, human; conditions: 2 μM drug, 30 minutes
Procedure: (§4) FIG. 12: Effect of small molecule binders of Ly6K. (A) Indicated cells were seeded and allowed to attach overnight, then treated with 2 μM drugs for 72 hours. Cell titer assay was performed to measure cell growth. (B) Cells were serum starved and treated with 100 ng/ml IFNγ with 2 μM drugs. PD-L1 was measure in live cells (using a zombie live-dead stain) as described in FIG. 3A. The graph was plotted from three experiments. (C, D) Indicated cells were allowed to attach, serum starved overnight and then treated with TGFβ (C) or IFNγ (D) in the presence of 2 μM drug for 30 minutes and western blot analysis was performed. The *** represents p<0.0005 and NS=non-significant in a two-tailed student T-test.
as §3

IFNγ/Stat1 signaling = assay: IFNγ-induced Stat1 phosphorylation (western blot); assay type: cell-based, human; conditions: 2 μM drug, 30 minutes
Procedure: as §4, §3

4T1 mammary tumor = 4T1 mammary tumor growth in syngeneic mouse model; assay type: in vivo, mice (Balb/c); conditions: 5 mg/kg/i.p. after tumor establishment at 50-70 mm^3
From the text: FIG. 4: Ly6K is required for tumor growth in syngeneic mammary tumor models. (A) The qRT-PCR analysis using […] gene expression assay for mRNA levels in scrambled shRNA (Con) and Ly6K knockdown (Ly6K sh) cells. (B) The western blot analysis (cell signaling antibodies). (C) For 4T1 model, 20K cells/site in Balb/c mice and for E0771, 500K cells/site in C57BL/6 syngeneic mice were transplanted into lower mammary fat pad by subcutaneous injection (number of mice 10 per cell line pair). Tumor measurements were performed using a Vernier caliper. The tumor volumes were calculated using equation 1⁄2*length*(width*width). ** indicates p<0.001 and NS=non-significant (p>0.05) in a two tailed student T-test. FIG. 5: Effect of small molecules on in vivo tumor growth. (A) NCI data-Indicated doses of NSC243928 in saline were given by intraperitoneal route (i.p.) every day for 9 days to BIDF syngeneic mice carrying […] leukemia cells. Each group has 6 mice. Mouse were monitored for 30 days after drug treatment. […] The ** represents p<0.005 in a two tailed student T-test. Each group has 10 mice. We used surface plasmon resonance to identify small molecule binders of Ly6K. We screened a panel of 2000 small molecules, obtained from the Developmental Therapeutic Program (DTP, NCI). […]

[2] = Preliminary experiments for maximum tolerated dose; assay type: in vivo; conditions: 5 mg/kg/ip
L1210 leukemia = conditions: up to 10 mg/kg/i.p.; cited from earlier work

Structure (SMILES)	SPR binding response to Ly6K (human Ly6K protein)	Kd (human Ly6K protein; SPR) [nM]	SPR binding response to Ly6E (Ly6E)	SPR binding response to Ly6D (Ly6D)	Effect on cell death ([1]; 2 μM)	Cell death ([1]; 100 μM, both control and Ly6K knockdown cells)	PD-L1 protein expression (PD-L1)	TGFβ1 induced phosphorylation of Smad2/3 (TGFβ1/Smad2/3 signaling)	IFNγ induced phosphorylation of Stat1 (IFNγ/Stat1 signaling)	4T1 mammary tumor growth (4T1 mammary tumor)	Therapeutic benefit [2]	Cell growth ([1]; Ly6K knockdown MDA-MB-231 cells, 2 μM)	Cell growth ([1]; control MDA-MB-231 cells, 2 μM)	Visible toxicity [2]	Toxicity (L1210 leukemia)
Oc1ccc(Cc2ccc(Cl)cc2)c(O)c1 [NSC11150, 4-(4-chlorobenzyl)benzene-1,3-diol]	binding response in dose dependent manner	1600	don't show binding response	don't show binding response	did not show significant effect	induced cell death	inhibition of PD-L1 expression	had no effect	inhibited	suppress 4T1 mammary tumor growth	therapeutic benefit	–	–	–	–
CCS(=O)(=O)Nc1ccc(Nc2c3ccccc3nc3ccccc23)c(OC)c1.CS(=O)(=O)O [NSC243928, 4′-(9-Acridinylamino)-3′-methoxyethanesulfonanilide methanesulfonate]	binding response in dose dependent manner	–	don't show binding response	don't show binding response	–	–	did not show significant effect	inhibited	had no effect	suppress 4T1 mammary tumor growth	therapeutic benefit	lost its activity	diminished the growth	no visible toxicity	not found to be toxic
